Experimental data reported in patent US20160030472A1, “XENON-BASED ANESTHETIC GAS COMPOSITION USABLE DURING AN ENDARTERECTOMY INVOLVING THE CLAMPING OF THE CAROTID ARTERY” (Air Liquide Santé (International), priority 2013, published 2016).

Tested on: patients scheduled for carotid surgery
Experiment: Randomized study of xenon versus sevoflurane for maintaining general anesthesia during carotid endarterectomy with clamping of the internal carotid artery
Type: in vivo, human being
Settings: for average radial-carotid pressure gradient (PG) between systemic SAP and arterial pressure in the clamped carotid artery: during clamping of the internal carotid artery, group X (xenon 60%±5%, at least 30% oxygen) compared with group S (sevoflurane), 12 patients per group
Method: The study was carried out in 24 patients scheduled for carotid surgery, comprising men and women. The choice of treatment of the patients is made randomly (randomization): • either using a routine anesthetic agent, namely sevoflurane: group S of 12 patients, • or by inhalation of xenon at 60%±5% in a mixture with at least 30% of oxygen: group X of 12 patients (% by volume). Anesthesia was induced identically in the 2 groups using intravenous products, namely propofol (target 1.5 μg/ml) and a morphine compound, remifentanil (target 4 ng/ml), double TCI (Target Controlled Infusion). The main assessment criterion is the pressure gradient (PG) between the systolic arterial pressure (SAP) measured at the level of a radial arterial catheter contralateral to the surgery and the arterial pressure in the clamped carotid artery. This pressure is obtained by means of a Fogarty catheter, which also enables clamping of the internal carotid artery by inflation of the balloon, connected to a pressure sensor. The continuous recording and the calculation of the PG are carried out live by a BiopAC system. This method makes it possible to obtain a measurement of the PG throughout the entire duration of the clamping of the internal carotid artery. The statistical analyses are carried out with R Project for Statistician Computing (www.r-project.org).

Compound: FCOC(C(F)(F)F)C(F)(F)F [sevoflurane, reference compound]
- consumption of vasopressor products for maintaining the systemic arterial pressure (group S compared with group X, p<0.001): significantly higher

Compound: [Xe] [xenon]
- average radial-carotid pressure gradient (PG) between systemic SAP and arterial pressure in the clamped carotid artery (p<0.001): reduce the pressure gradient (PG)
- average radial-carotid pressure gradient (PG) between systemic SAP and arterial pressure in the clamped carotid artery (p<0.001, listed as group X): significantly lower
- hemodynamic parameters during maintenance of anesthesia (maintenance of anesthesia with xenon): stable
- systemic systolic arterial pressure values (maintenance of anesthesia with xenon, compared with the usual inhaled or intravenous (IV) anesthetic agents): higher
